Reference: PubChem BioAssay AID2060492 (Molecular Pharmacology Branch, DTP, NCI, 2025)
pIC50: −log10 of the molar value.

System: 695427-040-R-J1-PDC complex spheroids, viability percent T/C
Experiment: Anticancer human tumor 695427-040-R-J1-PDC patient-derived colon adenocarcinoma cell line growth inhibition [GQUAD]
Details: for pIC50: curve of first compound; for viability, T/C: stronger effect = lower value; active means viability on the fitted dose curve at most 10% of control; inactive means the rest
From the text: DNA G-quadruplex Stabilizer Agents in Combinations in Complex Spheroids
A high-throughput screen of multi-cell type tumor spheroids was designed to identify active combinations of DNA G-quadruplex stabilizer agents and targeted small molecules. Complex spheroids include a stromal component modeled by human endothelial cells (HUVEC) and fibroblasts modeled by human mesenchymal stem cells (MSCs). The concentration ranges selected for each drug and investigational agent were based upon clinically achievable concentrations if the clinical Cmax of the agent was known.
Compounds. The drugs and investigational agents: pidnarulex (CX-5461; NSC782164), APTO-253 (NSC789042), BRACO-19 (NSC847499), peposertib (NSC802822), ceralasertib (NSC780249), elimusertib (NSC800525), camonsertib (NSC841442), AZD-1390 (NSC803789), olaparib (NSC753686), talazoparib (NSC767125), ART-558 (NSC835418), sotorasib (NSC818433), MRTX-1133 (NSC836407), SN-38 (NSC673596), topotecan (NSC609699), etoposide (NSC141540), doxorubicin (NSC123127), gemcitabine (NSC613327), 5-fluorouracil (NSC19893), paclitaxel (NSC125973), vemurafenib (NSC761431), panobinostat (NSC761190), R-306465 (JNJ-16241199; NSC773264), adavosertib (NSC754352), TP-3654 (NSC805149), carboplatin (NSC241240), KSQ-4279 (NSC840948), and staurosporine (NSC755774) were obtained from the National Cancer Institute (NCI) Developmental Therapeutics Program Chemical Repository (34). The FDA-approved anticancer drug set is available from the NCI Developmental Therapeutics Program. […] The stock solutions were prepared in dimethyl sulfoxide (DMSO, Sigma-Aldrich, St. Louis, MO, cat. D2650) at 800-fold the tested concentration and stored at -70 degrees C prior to their use. All drugs and investigational agents were tested over a range starting from a high concentration at or near the clinical Cmax and decreasing in half-log increments. If the clinical Cmax for an agent had not been determined, the highest concentration tested was 10 microM.
2.3 Cell Culture. All cells were maintained in an incubator at 37 degrees C and 5% CO2 with 95% humidity. The PDC lines were cultured according to standard operating procedures established by the NCI PDMR. All PDCs were thawed and cultured in Matrigel-coated flasks prepared with a working solution of 1X Ham's F-12 nutrient mix, without supplementation (Invitrogen, cat. 11765054), 100 U/mL penicillin-streptomycin (Invitrogen, cat. 15140122), and 2.5% Matrigel (Corning Inc., cat. 354248) for the first three passages. The 857933-349-R-J2-PDC line was cultured in 6C/Colon 1B media, which includes advanced DMEM/F-12 (Thermo Fisher Scientific, cat. 12634028), 10 mM HEPES (Thermo Fisher Scientific, cat. 15630080), 1X GlutaMAX supplement (Thermo Fisher Scientific, cat. 35050061), 0.1 mg/mL primocin (InvivoGen, cat. ant-pm-2), 10% defined fetal bovine serum, heat inactivated (HyClone Laboratories Inc., cat. SH30070.03HI), 50% L-WRN conditioned media (ATCC, cat. CRL-3276), 1.25 mM N-Acetyl-L-cysteine (Sigma-Aldrich, cat. A9165), 10 mM nicotinamide (Sigma-Aldrich, cat. N0636), 1X B-27 supplement (Thermo Fisher Scientific, cat. 17504044), 1X N-2 supplement (Thermo Fisher Scientific, cat. 17502048), 10 microM Y-27632 dihydrochloride (Tocris Bioscience, cat. 1254), and 50 ng/mL human EGF recombinant protein (Thermo Fisher Scientific, cat. PHG0311). The 485176-168-R4-J1-PDC line was cultured in Panc media, which includes all 6C/Colon 1B media components plus 100 ng/mL human FGF-10 (Thermo Fisher Scientific, cat. 100-26), 500 nM SB-431542 (Selleckchem, cat. S1067), and gastrin (Tocris, cat. 3006).
[…]

[1] = second compound 0.0316 µM, first compound 0.0316 µM
[2] = second compound 0.0316 µM, first compound 0.316 µM
[3] = second compound 0.1 µM, first compound 0.0316 µM
[4] = second compound 0.1 µM, first compound 0.316 µM
[5] = second compound 0.316 µM, first compound 0.0316 µM
[6] = second compound 0.316 µM, first compound 0.316 µM
[7] = second compound 1 µM, first compound 0.0316 µM
[8] = second compound 1 µM, first compound 0.316 µM
[9] = second compound 3.16 µM, first compound 0.0316 µM
[10] = second compound 3.16 µM, first compound 0.316 µM
[11] = second compound 10 µM, first compound 0.0316 µM
[12] = second compound 10 µM, first compound 0.316 µM
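Further: spheroids exposed to compounds for seven days before readout.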

CC(C)(O)C1CCC(Nc2ccc3ncc(-c4cccc(C(F)(F)F)c4)n3n2)CC1 (centres undefined) + Cc1cnc(CNC(=O)c2c(=O)c3ccc(N4CCCN(C)CC4)nc3n3c2sc2ccccc23)cn1
inactive: viability, T/C [1] 82.1% | viability, T/C (second compound 0.0316 µM, first compound 0.1 µM) 77.6% | viability, T/C [2] 73.5% | viability, T/C (second compound 0.0316 µM, first compound 1 µM) 54.2% | viability, T/C [3] 86.5% | viability, T/C (second compound 0.1 µM, first compound 0.1 µM) 61.3% | viability, T/C [4] 78.2% | viability, T/C (second compound 0.1 µM, first compound 1 µM) 45.8% | viability, T/C (second compound 0.1 µM, first compound 3.16 µM) 12.6% | viability, T/C (second compound 0.1 µM, first compound 10 µM) 11.2% | viability, T/C [5] 75.2% | viability, T/C (second compound 0.316 µM, first compound 0.1 µM) 52.5% | viability, T/C [6] 62.6% | viability, T/C (second compound 0.316 µM, first compound 1 µM) 52.5% | viability, T/C (second compound 0.316 µM, first compound 3.16 µM) 8.9% | viability, T/C (second compound 0.316 µM, first compound 10 µM) 11.4% | viability, T/C [7] 67.3% | viability, T/C (second compound 1 µM, first compound 0.1 µM) 59.8% | viability, T/C [8] 46.9% | viability, T/C (second compound 1 µM, first compound 1 µM) 34.7% | viability, T/C [9] 44.2% | viability, T/C (second compound 3.16 µM, first compound 0.1 µM) 40.6% | viability, T/C [10] 50.6% | viability, T/C (second compound 3.16 µM, first compound 1 µM) 17.7% | viability, T/C [11] 24.7% | viability, T/C (second compound 10 µM, first compound 0.1 µM) 21.9% | viability, T/C [12] 12.1%
> 7.50: pIC50 (second compound 3.16 µM) | pIC50 (second compound 10 µM)
active: viability, T/C (second compound 0.0316 µM, first compound 3.16 µM) 8.38% | viability, T/C (second compound 0.0316 µM, first compound 10 µM) 11.3% | viability, T/C (second compound 1 µM, first compound 3.16 µM) 1.37% | viability, T/C (second compound 1 µM, first compound 10 µM) 4.04% | viability, T/C (second compound 3.16 µM, first compound 3.16 µM) 0.11% | viability, T/C (second compound 3.16 µM, first compound 10 µM) 0.15% | viability, T/C (second compound 10 µM, first compound 1 µM) 0.26% | viability, T/C (second compound 10 µM, first compound 3.16 µM) 0.2% | viability, T/C (second compound 10 µM, first compound 10 µM) 0.19%
5.97: pIC50 (second compound 0.316 µM)
6.07: pIC50 (second compound 0.1 µM)
6.49: pIC50 (second compound 1 µM)
5.95: pIC50 (second compound 0.0316 µM)

CCc1c2c(nc3ccc(O)cc13)-c1cc3c(c(=O)n1C2)COC(=O)[C@]3(O)CC + Cc1cnc(CNC(=O)c2c(=O)c3ccc(N4CCCN(C)CC4)nc3n3c2sc2ccccc23)cn1
inactive: viability, T/C (second compound 0.0316 µM, first compound 0.000999 µM) 82.6% | viability, T/C (second compound 0.0316 µM, first compound 0.00316 µM) 75.7% | viability, T/C (second compound 0.0316 µM, first compound 0.00999 µM) 81.1% | viability, T/C [1] 57.9% | viability, T/C (second compound 0.0316 µM, first compound 0.0999 µM) 50.1% | viability, T/C [2] 34.5% | viability, T/C (second compound 0.1 µM, first compound 0.000999 µM) 91.4% | viability, T/C (second compound 0.1 µM, first compound 0.00316 µM) 68.6% | viability, T/C (second compound 0.1 µM, first compound 0.00999 µM) 73.2% | viability, T/C [3] 47.5% | viability, T/C (second compound 0.1 µM, first compound 0.0999 µM) 47.5% | viability, T/C [4] 33.8% | viability, T/C (second compound 0.316 µM, first compound 0.000999 µM) 85.3% | viability, T/C (second compound 0.316 µM, first compound 0.00316 µM) 57% | viability, T/C (second compound 0.316 µM, first compound 0.00999 µM) 63.6% | viability, T/C [5] 49.8% | viability, T/C (second compound 0.316 µM, first compound 0.0999 µM) 43.2% | viability, T/C [6] 31.1% | viability, T/C (second compound 1 µM, first compound 0.000999 µM) 66.1% | viability, T/C (second compound 1 µM, first compound 0.00316 µM) 63.6% | viability, T/C (second compound 1 µM, first compound 0.00999 µM) 53.1% | viability, T/C [7] 47.7% | viability, T/C (second compound 1 µM, first compound 0.0999 µM) 40.4% | viability, T/C [8] 19.1% | viability, T/C (second compound 3.16 µM, first compound 0.000999 µM) 55.1% | viability, T/C (second compound 3.16 µM, first compound 0.00316 µM) 47.3% | viability, T/C (second compound 3.16 µM, first compound 0.00999 µM) 44.8% | viability, T/C [9] 38.9% | viability, T/C (second compound 3.16 µM, first compound 0.0999 µM) 31.2% | viability, T/C (second compound 10 µM, first compound 0.000999 µM) 39.7% | viability, T/C (second compound 10 µM, first compound 0.00316 µM) 33.7% | viability, T/C (second compound 10 µM, first compound 0.00999 µM) 40.2% | viability, T/C [11] 37.7% | viability, T/C (second compound 10 µM, first compound 0.0999 µM) 9.89%
7.56: pIC50 (second compound 0.316 µM)
7.58: pIC50 (second compound 1 µM)
7.09: pIC50 (second compound 0.0316 µM)
active: viability, T/C [10] 7.33% | viability, T/C [12] 0.52%
7.31: pIC50 (second compound 0.1 µM)
8.52: pIC50 (second compound 3.16 µM)
> 9.00: pIC50 (second compound 10 µM)
